Earlier results as cited in EP3342399B1, “PHARMACEUTICAL COMPOSITIONS COMPRISING POSACONAZOLE AND MANUFACTURING METHOD” (Abdi Ibrahim Ilac Sanayi ve Ticaret A.S., priority 2016, dated 2018).
Where two headings read alike, the source gives them in different places.

permeability (BCS Class II): high | solubility (BCS Class II): low | solubility (at low pH): high
Structure (SMILES): CC[C@@H]([C@H](C)O)n1ncn(-c2ccc(N3CCN(c4ccc(OC[C@@H]5CO[C@@](Cn6cncn6)(c6ccc(F)cc6F)C5)cc4)CC3)cc2)c1=O [Posaconazole, 1-[(1S,2S)-1-Ethyl-2-hydroxypropyl]-4-{4-[4-(4-{2-[(2S,4R)-(1,2,4-triazol-1-ylmetyl)-2-(2,4-difluorophenyl)-oxolan-4-ylmetyl]phenyl}piperazin-1-yl)phenyl]}-2,3-dihydro-1,2,4-triazol-3-one]
